Data taken from ChEMBL document CHEMBL3804790, “Fragment-Based Approaches to the Development of Mycobacterium tuberculosis CYP121 Inhibitors” (J Med Chem, 2016).
pIC50, pKd: −log10 of the molar value.

Legend:
Mycocyclosin synthase [1] = molecular target: T1, Mycocyclosin synthase (Mycobacterium tuberculosis, UniProt P9WPP7); design: species or system C41(DE3); conditions: for pKd: read-out: Kd
T1 sequence (P9WPP7 whole entry): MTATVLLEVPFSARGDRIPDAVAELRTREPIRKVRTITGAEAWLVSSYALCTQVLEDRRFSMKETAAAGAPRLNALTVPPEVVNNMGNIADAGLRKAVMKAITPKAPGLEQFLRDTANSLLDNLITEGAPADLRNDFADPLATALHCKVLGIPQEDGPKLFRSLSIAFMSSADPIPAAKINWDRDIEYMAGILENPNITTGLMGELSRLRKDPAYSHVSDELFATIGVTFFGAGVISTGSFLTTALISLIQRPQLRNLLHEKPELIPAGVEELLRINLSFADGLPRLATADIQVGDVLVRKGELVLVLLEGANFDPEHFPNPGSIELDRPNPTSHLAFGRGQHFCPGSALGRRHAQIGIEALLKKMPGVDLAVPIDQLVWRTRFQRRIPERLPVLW

Mycocyclosin synthase [2] = molecular target: T1, Mycocyclosin synthase; design: species or system C41(DE3)
[3] = test system: Mycobacterium tuberculosis; assay: Antimycobacterial activity against Mycobacterium tuberculosis H37Rv assessed as bacterial growth inhibition after 2 weeks; format: functional; conditions: 336 h
Cytochrome P450 2D6 = Cytochrome P450 2D6 (Homo sapiens, UniProt P10635); assay: Inhibition of CYP2D6 in human liver microsomes using dextromethorphan as substrate by LC-MS/MS analysis; format: ADME
Chain of Cytochrome P450 2D6 (P10635 whole entry): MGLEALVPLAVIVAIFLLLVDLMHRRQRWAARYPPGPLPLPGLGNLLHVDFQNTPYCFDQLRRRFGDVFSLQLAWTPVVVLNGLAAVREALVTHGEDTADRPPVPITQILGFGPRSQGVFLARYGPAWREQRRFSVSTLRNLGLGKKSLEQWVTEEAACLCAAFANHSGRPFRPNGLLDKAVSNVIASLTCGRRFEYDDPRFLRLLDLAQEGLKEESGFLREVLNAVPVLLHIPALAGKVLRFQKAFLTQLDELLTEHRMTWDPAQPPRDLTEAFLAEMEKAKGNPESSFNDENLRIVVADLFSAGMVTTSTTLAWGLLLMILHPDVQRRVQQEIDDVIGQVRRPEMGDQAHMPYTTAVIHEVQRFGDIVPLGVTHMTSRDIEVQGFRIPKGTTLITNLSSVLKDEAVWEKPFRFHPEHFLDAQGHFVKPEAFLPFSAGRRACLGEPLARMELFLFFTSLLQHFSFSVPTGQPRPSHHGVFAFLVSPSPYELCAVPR

Cytochrome P450 2C19 = Cytochrome P450 2C19 (Homo sapiens, UniProt P33261); assay: Inhibition of CYP2C19 in human liver microsomes using mephenytoin as substrate by LC-MS/MS analysis; format: ADME
Chain of Cytochrome P450 2C19 (P33261 whole entry): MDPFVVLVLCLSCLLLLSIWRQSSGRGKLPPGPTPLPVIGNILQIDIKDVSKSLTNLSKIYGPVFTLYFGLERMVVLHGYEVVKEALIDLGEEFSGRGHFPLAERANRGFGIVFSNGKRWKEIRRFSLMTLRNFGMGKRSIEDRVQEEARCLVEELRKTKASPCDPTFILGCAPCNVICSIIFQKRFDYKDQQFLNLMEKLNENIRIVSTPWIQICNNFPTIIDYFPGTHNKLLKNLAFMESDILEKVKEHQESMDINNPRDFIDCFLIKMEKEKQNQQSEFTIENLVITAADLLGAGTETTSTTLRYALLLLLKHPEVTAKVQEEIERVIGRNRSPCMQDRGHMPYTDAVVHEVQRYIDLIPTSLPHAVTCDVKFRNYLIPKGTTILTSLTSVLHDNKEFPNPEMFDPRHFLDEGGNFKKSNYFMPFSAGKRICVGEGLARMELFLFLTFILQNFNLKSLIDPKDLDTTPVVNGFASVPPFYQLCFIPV

Cytochrome P450 3A4 = Cytochrome P450 3A4 (Homo sapiens, UniProt P08684)
Chain of Cytochrome P450 3A4 (P08684 whole entry): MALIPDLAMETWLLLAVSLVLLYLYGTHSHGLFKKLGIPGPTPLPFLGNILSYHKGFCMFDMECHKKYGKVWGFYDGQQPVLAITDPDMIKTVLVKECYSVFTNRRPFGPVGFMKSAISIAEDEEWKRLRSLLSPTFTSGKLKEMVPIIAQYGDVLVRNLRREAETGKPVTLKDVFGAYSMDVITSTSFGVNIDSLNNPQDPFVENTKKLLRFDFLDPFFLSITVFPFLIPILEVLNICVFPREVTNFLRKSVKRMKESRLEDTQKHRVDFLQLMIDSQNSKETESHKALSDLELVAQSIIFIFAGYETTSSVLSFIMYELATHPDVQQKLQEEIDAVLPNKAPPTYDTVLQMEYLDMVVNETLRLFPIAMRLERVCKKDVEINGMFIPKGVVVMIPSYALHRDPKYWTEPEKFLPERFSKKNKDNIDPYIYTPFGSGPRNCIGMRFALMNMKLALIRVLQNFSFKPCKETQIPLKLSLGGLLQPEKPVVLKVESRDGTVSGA
Description: Inhibition of CYP3A4 in human liver microsomes using midazolam as substrate by LC-MS/MS analysis

[4] = Inhibition of CYP1A1/CYP1A2 in human liver microsomes using ethoxyresorufin as substrate by fluorescence analysis; format: ADME
Cytochrome P450 2C9 = Cytochrome P450 2C9 (Homo sapiens, UniProt P11712); assay: Inhibition of CYP2C9 in human liver microsomes using tolbutamide as substrate by LC-MS/MS analysis; format: ADME
Chain of Cytochrome P450 2C9 (P11712 whole entry): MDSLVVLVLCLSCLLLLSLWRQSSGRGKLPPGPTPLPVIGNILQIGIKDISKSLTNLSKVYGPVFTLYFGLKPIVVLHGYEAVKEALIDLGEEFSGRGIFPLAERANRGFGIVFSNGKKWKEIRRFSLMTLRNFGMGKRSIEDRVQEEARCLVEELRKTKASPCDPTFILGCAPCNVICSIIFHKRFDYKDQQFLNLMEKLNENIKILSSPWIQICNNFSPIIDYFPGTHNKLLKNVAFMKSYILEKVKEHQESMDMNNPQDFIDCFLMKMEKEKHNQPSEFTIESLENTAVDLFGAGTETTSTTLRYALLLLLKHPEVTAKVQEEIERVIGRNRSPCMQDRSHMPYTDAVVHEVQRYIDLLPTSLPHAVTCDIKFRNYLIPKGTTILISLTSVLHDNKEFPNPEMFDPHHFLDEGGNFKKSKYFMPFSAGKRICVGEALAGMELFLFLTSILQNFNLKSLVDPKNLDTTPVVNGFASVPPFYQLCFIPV

[5] = test system: CYP1A (relative to Mycobacterium tuberculosis CYP121); assay: in vitro; conditions: human, c41(de3)
Description: Selectivity ratio of IC50 for human CYP1A to Kd for Mycobacterium tuberculosis His6-tagged CYP121 expressed in Escherichia coli C41 (DE3) cells

[6] = molecular target: T2, Steroid C26-monooxygenase (Mycobacterium tuberculosis, UniProt P9WPP1); design: species or system C41(DE3)
T2 sequence (P9WPP1 whole entry): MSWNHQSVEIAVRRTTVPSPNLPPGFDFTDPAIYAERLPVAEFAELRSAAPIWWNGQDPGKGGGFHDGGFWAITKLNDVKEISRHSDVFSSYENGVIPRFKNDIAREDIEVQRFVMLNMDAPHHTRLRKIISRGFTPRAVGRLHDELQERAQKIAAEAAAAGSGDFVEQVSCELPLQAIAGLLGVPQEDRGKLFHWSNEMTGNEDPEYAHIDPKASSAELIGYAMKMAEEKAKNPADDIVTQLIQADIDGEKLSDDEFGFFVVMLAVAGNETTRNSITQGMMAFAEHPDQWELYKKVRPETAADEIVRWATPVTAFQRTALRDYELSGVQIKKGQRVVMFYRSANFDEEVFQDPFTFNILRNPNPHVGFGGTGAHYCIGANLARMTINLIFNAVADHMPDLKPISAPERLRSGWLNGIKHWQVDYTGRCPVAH

[7] = molecular target: T3, Methyl-branched lipid omega-hydroxylase (Mycobacterium tuberculosis (strain ATCC 25618 / H37Rv), UniProt P9WPP3); design: species or system C41(DE3)
T3 sequence (P9WPP3 whole entry): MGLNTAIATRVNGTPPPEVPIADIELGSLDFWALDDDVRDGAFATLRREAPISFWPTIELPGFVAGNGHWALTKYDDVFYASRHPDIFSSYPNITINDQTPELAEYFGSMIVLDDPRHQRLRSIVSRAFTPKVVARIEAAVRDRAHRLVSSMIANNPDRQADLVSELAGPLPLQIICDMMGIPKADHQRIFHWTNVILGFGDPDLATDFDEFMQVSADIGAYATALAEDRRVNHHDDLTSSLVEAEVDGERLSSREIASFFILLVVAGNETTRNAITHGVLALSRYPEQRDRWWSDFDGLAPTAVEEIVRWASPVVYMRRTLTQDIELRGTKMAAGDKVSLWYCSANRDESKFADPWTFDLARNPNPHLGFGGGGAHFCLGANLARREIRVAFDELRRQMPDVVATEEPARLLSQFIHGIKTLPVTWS

For Nc1cccc(-c2cc(-c3cn[nH]c3N)ccc2OCc2ccccc2)c1, the pKd (Mycocyclosin synthase [1]) was 4.55.

O=C(Nc1[nH]nc(-c2ccc(O)cc2)c1-c1ccc(O)cc1)c1ccccc1 gave a pKd (Mycocyclosin synthase [1]) of 3.80.

In the case of Oc1ccc(-c2n[nH]c(NCc3ccncc3)c2-c2ccc(O)cc2)cc1, the pKd (Mycocyclosin synthase [1]) was 3.62.

For COc1ccc(-c2n[nH]c(N)c2-c2cccc(-c3cccc(N)c3)c2)cc1, the Kd (Mycocyclosin synthase [1]; c41(de3)) was “ND(Insoluble)”, the pKd (Mycocyclosin synthase [2]) was 7.47 and the MIC90 [3] was ≥ 50 µM.

With Cc1ccc2cc(N)ccc2n1 the pKd (Mycocyclosin synthase [1]) was 3.40.

With Nc1cccc(-c2cc(-c3c(-c4ccc(O)cc4)n[nH]c3N)ccc2O)c1 the MIC90 [3] was ≥ 50 µM.

Nc1[nH]nc(-c2ccc(O)cc2O)c1-c1ccc(O)cc1 showed a pKd (Mycocyclosin synthase [1]) of 3.74.

For Oc1ccc(CNc2[nH]nc(-c3ccc(O)cc3)c2-c2ccc(O)cc2)cc1, the pIC50 (Cytochrome P450 2D6) was < 4.60, the pIC50 (Cytochrome P450 2C19) was < 4.60 and the pIC50 (Cytochrome P450 3A4) was < 4.60. For the same molecule, the pKd (Mycocyclosin synthase [1]) was 5.20, the MIC90 [3] was ≥ 50 µM and the pIC50 [4] was < 4.60. The pIC50 (Cytochrome P450 2C9) was < 4.60.

For Nc1ccc(-c2cccc(-c3cn[nH]c3N)c2)cc1, the pKd (Mycocyclosin synthase [2]) was 3.64.

In the case of Nc1cccc(-c2cccc(-c3c(-c4ccc(O)cc4)n[nH]c3N)c2)c1, the selectivity ratio [5] was 1430, the pIC50 (Cytochrome P450 2D6) was < 4.60 and the pIC50 (Cytochrome P450 2C19) was < 4.60. The pIC50 (Cytochrome P450 3A4) was 4.95, the pKd [6] was 4.74 and the pKd [7] was 6.07. For the same molecule, the pKd (Mycocyclosin synthase [1]) was 6.13, the pKd (Mycocyclosin synthase [2]) was 7.82 and the MIC90 [3] was ≥ 50 µM. For the same molecule, the pIC50 [4] was 4.67 and the pIC50 (Cytochrome P450 2C9) was < 4.60.

In the case of Oc1ccc(-n2cncn2)cc1, the pKd (Mycocyclosin synthase [1]) was 2.77.

Oc1ccc(-c2n[nH]c(NCc3ccc4[nH]ccc4c3)c2-c2ccc(O)cc2)cc1 showed a pKd (Mycocyclosin synthase [1]) of 4.22.

Nc1[nH]nc(-c2cccc(F)c2)c1-c1ccc(O)cc1 showed a pKd (Mycocyclosin synthase [1]) of 3.60.

Oc1ccc(-c2n[nH]c(NCc3ccc(O)c(Br)c3)c2-c2ccc(O)cc2)cc1 showed a pKd (Mycocyclosin synthase [1]) of 4.72.

In the case of Nc1cccc(Cn2cncn2)c1, the pKd (Mycocyclosin synthase [1]) was 2.80.

Work on O=C(Nc1[nH]nc(-c2ccc(O)cc2)c1-c1ccc(O)cc1)c1ccc(O)cc1 yielded a pKd (Mycocyclosin synthase [1]) of 4.11.

In the case of Nc1cccc(-c2cccc(-c3cn[nH]c3N)c2)c1, the selectivity ratio [5] was 0.09, the pIC50 (Cytochrome P450 2D6) was < 4.60 and the pIC50 (Cytochrome P450 2C19) was < 4.60. For the same molecule, the pIC50 (Cytochrome P450 3A4) was < 4.60, the pKd (Mycocyclosin synthase [1]) was 3.85 and the pKd (Mycocyclosin synthase [2]) was 4.85. For the same molecule, the MIC90 [3] was ≥ 50 µM, the pIC50 [4] was 5.91 and the pIC50 (Cytochrome P450 2C9) was < 4.60.

For Oc1ccc(-c2n[nH]c(NCc3ccsc3)c2-c2ccc(O)cc2)cc1, the pKd (Mycocyclosin synthase [1]) was 4.74.

With Nc1cc(-c2ccc(O)cc2)n[nH]1 the pKd (Mycocyclosin synthase [1]) was 2.89.

Oc1ccc(-c2n[nH]c(NCc3c[nH]cn3)c2-c2ccc(O)cc2)cc1 showed a pKd (Mycocyclosin synthase [1]) of 3.56.

Oc1ccc(-c2n[nH]c(NCc3cccc4[nH]ncc34)c2-c2ccc(O)cc2)cc1 gave a pKd (Mycocyclosin synthase [1]) of 4.35.

With Nc1[nH]nc(-c2cccc(O)c2)c1-c1ccc(O)cc1 the pKd (Mycocyclosin synthase [1]) was 4.22.

NC(=O)c1cc(Cl)ccc1N showed a pKd (Mycocyclosin synthase [1]) of 2.47.

For Nc1[nH]ncc1-c1ccc(O)cc1, the pKd (Mycocyclosin synthase [1]) was 2.73.

Work on Oc1ccc(-c2n[nH]c(NCc3ccco3)c2-c2ccc(O)cc2)cc1 yielded a pKd (Mycocyclosin synthase [1]) of 4.62.

Oc1ccc(Nc2[nH]nc(-c3ccc(O)cc3)c2-c2ccc(O)cc2)cc1 showed a pKd (Mycocyclosin synthase [1]) of 4.82.

O=C(Nc1[nH]nc(-c2ccc(O)cc2)c1-c1ccc(O)cc1)c1ccncc1 showed a pKd (Mycocyclosin synthase [1]) of 3.22.

Molecule COc1ccc(-c2cn[nH]c2N)cc1-c1cccc(N)c1 has a pKd (Mycocyclosin synthase [1]) of 4.17.

With Oc1ccc(Nc2cc(-c3ccc(O)cc3)[nH]n2)cc1 the pKd (Mycocyclosin synthase [1]) was 4.97.

For Nc1[nH]nc(-c2ccc(O)cc2)c1-c1ccc(O)cc1, the pKd (Mycocyclosin synthase [1]) was 4.40 and the MIC90 [3] was ≥ 50 µM.
